How the values were obtained:
[1] = system: HCV replicon (5-2 Luc replicon-comprising cells); test: HCV replicon assay (luciferase); format: cell-based; settings: 5-2 Luc replicon cells, 24 hours with compound; read-out: Replicon IC50 (50% reduction in luciferase activity)
Text: In one embodiment, the inhibitory activity of the compounds can be confirmed in a replicon assay that assesses the ability of a test compound to block or inhibit HCV replication in replicon cells. One example of a suitable replicon assay is the liver cell-line Huh 7-based replicon assay described in Lohmann et al., 1999, Science 285:110-113. A specific example of this replicon assay which utilizes luciferase translation is provided in the Examples Section. In one embodiment of this assay, the amount of test compound that yields a 50% reduction in translation as compared to a control cell (IC50) may be determined.
The inhibitory activity of certain exemplary compounds of the invention was confirmed using an HCV replicon assay. The HCV replicon can include such features as the HCV 5′ untranslated region including the HCV IRES, the HCV 3′ untranslated region, selected HCV genes encoding HCV polypeptides, selectable markers, and a reporter gene such as luciferase, GFP, etc. In the assay, actively dividing 5-2 Luc replicon-comprising cells (obtained from Ralf Bartenschlager; see Lohmann et al., 1999, Science 285:110-113) were seeded ata density of between about 5,000 and 7,500 cells/well onto 96 well plates (about 90 μl of cells per well) and incubated at 37° C. and 5% CO2 for 24 hours. Then, the test compound (in a volume of about 10 μl) was added to the wells at various concentrations and the cells were incubated for an additional 24 hours before luciferase assay. Briefly, the Bright-Glo reagent was diluted 1:1 with PBS and 100 μl of diluted reagent was added to each well. After 5 min of incubation at room temperature, luciferin emission was quantified with a luminometer. In this assay, the amount of test compound that yielded a 50% reduction in luciferase activity (IC50) was determined.

[2] = system: HCV nonstructural protein NS5A or NS3; test: Quantitative Western blot assay in 9-13 replicon cells; format: cell-based; settings: second symbol of column Replicon/Western, 48 hours with compound, read-out: Western IC50 (50% reduction in the amount of NS5A or NS3 protein)
Procedure: Alternatively, the inhibitory activity of the compounds can be confirmed using a quantitative Western immunoblot assay utilizing antibodies specific for HCV non-structural proteins, such as NS3, NS4A NS5A and NS5B. In one embodiment of this assay, replicon cells are treated with varying concentrations of test compound to determine the concentration of test compound that yields a 50% reduction in the amount of a non-structural protein produced as compared to a control sample (IC50). A single non-structural protein may be quantified or multiple non-structural proteins may be quantified. Antibodies suitable for carrying out such immunoblot assays are available commercially (e.g., from BIODESIGN International, Saco, Me.).
Certain exemplary compounds of the invention were also tested for their ability to inhibit HCV replication using a quantitative Western blot analysis with antibodies specific for the HCV nonstructural protein NS5A or NS3. Actively dividing 9-13 replicon cells were seeded into 6-well plates at a density of 1×10^5 cells/well in a volume of 2 ml/well and incubated at 37° C. and 5% CO2 for 24 hours. Various concentrations of test compounds (in a volume of 10 ul) were added to the wells and the cells incubated for another 48 hours. […] The membrane was then soaked in substrate solution (Pierce) and exposed to a film or quantified using an imager. […]

**Q.** For `Clc1cccc(Cl)c1-c1cc(-c2ccnc(-c3noc(C(Cl)Cl)n3)c2)on1` [(Ia) R2=Cl, R6=Cl, 5-Dichloromethyl-3-[4-[3′-(2′,6′-dichlorophenyl)-5′-isoxazolyl]-4-pyridyl]-1,2,4-oxadiazole], which IC50 [1] is on record?
**A.** > 10 µM

**Q.** Which IC50 [1] does the source give for `COc1cccc(C(F)(F)F)c1-c1cc(-c2ccc(-c3noc(C(Cl)Cl)n3)cc2)on1` [(III) R2=CF3, R6=OMe, 5-Dichloromethyl-3-[4-[3′-(2′-methoxy-6′-trifluoromethylphenyl)-5′-isoxazolyl]phenyl]-1,2,4-oxadiazole] here?
**A.** ≤ 10 µM

**Q.** For `Clc1cc(-c2cc(-c3c(Cl)cccc3Cl)no2)ccc1-c1noc(C(Cl)Cl)n1` [(III) R2=Cl, R6=Cl, R8=Cl, 5-Dichloromethyl-3-[4-[3′-(2′,6′-dichlorophenyl)-5′-isoxazolyl]-2-chlorophenyl]-1,2,4-oxadiazole], which IC50 [1] is on record?
**A.** > 10 µM

**Q.** With `Clc1cccc(Cl)c1-c1cc(-c2cccc(-c3noc(C(Cl)Cl)n3)c2)on1` [(I) R2=Cl, R6=Cl, 5-Dichloromethyl-3-[3-[3′-(2′,6′-dichlorophenyl)-5′-isoxazolyl]phenyl]-1,2,4-oxadiazole] as the molecule, how does the IC50 [2] read?
**A.** ≤ 10 µM

**Q.** What about the IC50 [1] of the same molecule?
**A.** ≤ 10 µM

**Q.** How did the IC50 [1] turn out when `CC(=O)N1CCN(c2cccc(Cl)c2-c2cc(-c3ccc(-c4noc(C(Cl)Cl)n4)c(Cl)c3)on2)CC1` [5-Dichloromethyl-3-[4-[3′-[2′-chloro-6′-(N-acetyl-4-piperazinyl)phenyl]-5′-isoxazolyl]-2-chlorophenyl]-1,2,4-oxadiazole] was run?
**A.** > 10 µM

**Q.** `Cc1cc(-c2noc(C(Cl)Cl)n2)ccc1-c1cc(-c2c(Cl)cccc2Cl)no1` [(III) R2=Cl, R6=Cl, R10=Me, 5-Dichloromethyl-3-[4-[3′-(2′,6′-dichlorophenyl)-5′-isoxazolyl]-3-methylphenyl]-1,2,4-oxadiazole] was tested. Which IC50 [1] did it give?
**A.** ≤ 10 µM

**Q.** `Clc1cccc(Cl)c1-c1cc(-c2ccc(-c3noc(C(Cl)Cl)n3)cc2)on1` [(III) R2=Cl, R6=Cl, 5-Dichloromethyl-3-[4-[3′-(2′,6′-dichlorophenyl)-5′-isoxazolyl]phenyl]-1,2,4-oxadiazole] was tested. Which IC50 [1] did it give?
**A.** ≤ 10 µM

**Q.** `COc1cccc(C(F)(F)F)c1-c1cc(-c2cccc(-c3noc(C(Cl)Cl)n3)c2)on1` [(I) R2=CF3, R6=OMe, 5-Dichloromethyl-3-[3-[3′-(2′-methoxy-6′-trifluoromethylphenyl)-5′-isoxazolyl]phenyl]-1,2,4-oxadiazole] was tested. Which IC50 [1] did it give?
**A.** > 10 µM

**Q.** With `CC(=O)N1CCN(c2cccc(Cl)c2-c2cc(-c3ccc(-c4noc(C(Cl)Cl)n4)c(F)c3)on2)CC1` [5-Dichloromethyl-3-[4-[3′-[2′-chloro-6′-(N-acetyl-4-piperazinyl)phenyl]-5′-isoxazolyl]-2-fluorophenyl]-1,2,4-oxadiazole] as the molecule, how does the IC50 [1] read?
**A.** ≤ 10 µM

**Q.** `Fc1cccc(Cl)c1-c1cc(-c2ccc(-c3noc(C(Cl)Cl)n3)cc2)on1` [(III) R2=Cl, R6=F, 5-Dichloromethyl-3-[4-[3′-(2′-chloro-6′-fluorophenyl)-5′-isoxazolyl]phenyl]-1,2,4-oxadiazole] was tested. Which IC50 [1] did it give?
**A.** ≤ 10 µM

**Q.** Which IC50 [1] does the source give for `Fc1cc(-c2cc(-c3c(Cl)cccc3Cl)no2)ccc1-c1noc(C(Cl)Cl)n1` [(I) R2=Cl, R6=Cl, R8=F, 5-Dichloromethyl-3-[4-[3′-(2′,6′-dichlorophenyl)-5′-isoxazolyl]-6-fluorophenyl]-1,2,4-oxadiazole] here?
**A.** ≤ 10 µM

**Q.** For `Clc1cccc(Cl)c1-c1cc(-c2ccccc2-c2noc(C(Cl)Cl)n2)on1` [(II) R2=Cl, R6=Cl, 5-Dichloromethyl-3-[2-[3′-(2′,6′-dichlorophenyl)-5′-isoxazolyl]phenyl]-1,2,4-oxadiazole], which IC50 [1] is on record?
**A.** ≤ 10 µM

**Q.** With `Fc1cccc(C(F)(F)F)c1-c1cc(-c2ccc(-c3noc(C(Cl)Cl)n3)cc2)on1` [(III) R2=CF3, R6=F, 5-Dichloromethyl-3-[4-[3′-(2′-fluoro-6′-trifluoromethylphenyl)-5′-isoxazolyl]phenyl]-1,2,4-oxadiazole] as the molecule, how does the IC50 [1] read?
**A.** ≤ 10 µM
